Data reported in patent US20130102631A1, “NOVEL MICROBIOCIDAL DIOXIME ETHER DERIVATIVES” (SYNGENTA CROP PROTECTION LLC, priority 2010, published 2013).

What was measured:
[1] = test system: Mycosphaerella arachidis (Cercospora arachidicola); experiment: Mycosphaerella arachidis (Cercospora arachidicola) / liquid culture (early leaf spot); assay type: cell-based; settings: at ≦200 ppm, liquid culture PDB, inhibition of growth photometrically 4-5 days after application, read-out: control of Mycosphaerella arachidis
Procedure: Mycosphaerella arachidis (Cercospora arachidicola)/Liquid Culture (Early Leaf Spot): Conidia of the fungus from cryogenic storage were directly mixed into nutrient broth (PDB potato dextrose broth). After placing a DMSO solution of test compound into a 96-well microtiter plate, the nutrient broth containing the fungal spores was added. The test plates are incubated at 24° C. and the inhibition of growth was determined photometrically 4-5 days after application. […]-2.509; 5.561; 2.561; P.57; 2.513; 2.559; 2.558; 2.557; 2.556; 2.555; 2.374; 2.553; 2.552; 2.551 (fraction B); 2.551 (fraction A); 2.544; 2.541; 2.539; 2.537; 2.536; 2.533; 2.532; 2.531; 2.530; 2.528; 2.526; 2.525 (fraction B); 2.525 (fraction A); 2.524; 2.520; 2.519; 2.510; 2.518; 2.517; 2.516; 2.514; […].002; 2.512; 2.511; 2.514

[2] = test system: Phaeosphaeria nodorum (Septoria nodorum); experiment: Phaeosphaeria nodorum (Septoria nodorum) / wheat / leaf disc preventative (glume blotch); assay type: in vivo; settings: Parastagonospora nodorum, foliar, wheat leaf segments cv Kanzler, inoculated 2 days after application, assessed 5-7 days after application
Procedure: Phaeosphaeria nodorum (Septoria nodorum)/Wheat/Leaf Disc Preventative (Glume Blotch): Wheat leaf segments cv Kanzler were placed on agar in a 24-well plate and sprayed with formulated test compound diluted in water at an application rate of 200 ppm. The leaf disks are inoculated with a spore suspension of the fungus 2 days after application. The inoculated test leaf disks are incubated at 20° C. and 75% relative humidity under a light regime of 12/12 h (light/dark) in a climate cabinet and the activity of a compound is assessed as percent disease control compared to untreated when an appropriate level of disease damage appears in untreated check leaf disks (5-7 days after application). […]-2.508; 5.561; 2.561; E/E-2.208; P.57; 2.513; 2.559; 2.558; 2.557; 2.556; 2.555; 2.374; 2.544; 2.541; 2.539; 2.537; 2.536; 2.535; 2.533; 2.530; 2.526; 2.519; 2.510; 2.516; 2.514; E/E-5.167; E/E-3.002; 2.512

[3] = test system: Mycosphaerella graminicola (Septoria tritici); experiment: Mycosphaerella graminicola (Septoria tritici) / liquid culture (Septoria blotch); assay type: cell-based; settings: Zymoseptoria tritici; at ≦200 ppm, liquid culture PDB, inhibition of growth photometrically 4-5 days after application; read-out: control of Mycosphaerella graminicola
[4] = test system: Glomerella lagenarium; experiment: Glomerella lagenarium (Colletotrichum lagenarium) / liquid culture (anthracnose); assay type: cell-based; settings: Colletotrichum orbiculare; at ≦200 ppm, liquid culture PDB, inhibition of growth photometrically 3-4 days after application; read-out: control of Glomerella lagenarium
Procedure: Glomerella lagenarium (Colletotfichum lagenarium)/Liquid Culture (Anthracnose): Conidia of the fungus from cryogenic storage were directly mixed into nutrient broth (PDB potato dextrose broth). After placing a DMSO solution of test compound into a 96-well microtiter, the nutrient broth containing the fungal spores was added. The test plates were incubated at 24° C. and the inhibition of growth is measured photometrically 3-4 days after application. […]-2.509; 5.561; 2.561; E/E-2.208; P.57; 2.513; 2.559; 2.556; 2.555; 2.374; 2.552; 2.548; 2.544; 2.541; 2.540; 2.539; 2.537; 2.536; 2.533; 2.531; 2.530; 2.528; 2.526; 2.519; 2.510; 2.516; 2.514; E/E-5.167; E/E-3.002; 2.512; 2.514; Z/E-2.474

[5] = test system: Thanatephorus cucumeris (Rhizoctonia solani); experiment: Thanatephorus cucumeris (Rhizoctonia solani) / liquid culture (foot rot, damping-off); assay type: cell-based; settings: at ≦200 ppm, liquid culture PDB, inhibition of growth photometrically 3-4 days after application, read-out: control of Thanatephorus cucumeris
Procedure: Thanatephorus cucumeris (Rhizoctonia solani)/Liquid Culture (Foot Rot, Damping-Off Mycelia fragments of a newly grown liquid culture of the fungus are directly mixed into nutrient broth (PDB potato dextrose broth). After placing a DMSO solution of the test compounds into a 96-well microtiter, the nutrient broth containing the fungal material was added. The test plates were incubated at 24° C. and the inhibition of growth was determined photometrically 3-4 days after application. […]-2.508 5.561; 2.561; P.57; 2.513; 2.559; 2.558; 2.553; 2.533; 2.530; 2.526; 2.519; 2.517; 2.516; 2.514; 2.512; 2.514

[6] = test system: Monographella nivalis (Microdochium nivale); experiment: Monographella nivalis (Microdochium nivale) / liquid culture (foot rot cereals); assay type: cell-based; settings: at ≦200 ppm, liquid culture PDB, inhibition of growth photometrically 4-5 days after application, read-out: control of Monographella nivalis
Procedure: Monographella nivalis (Microdochium nivale)/Liquid Culture (Foot Rot Cereals): Conidia of the fungus from cryogenic storage were directly mixed into nutrient broth (PDB potato dextrose broth). After placing a DMSO solution of test compound into a 96-well microtiter plate, the nutrient broth containing the fungal spores was added. The test plates were incubated at 24° C. and the inhibition of growth was determined photometrically 4-5 days after application. […].57; 2.513; 2.559; 2.558; 2.556; 2.555; 2.374; 2.553; 2.551 (fraction B); 2.551 (fraction A); 2.548; 2.544; 2.542; 2.541; 2.539; 2.536; 2.535; 2.533; 2.530; 2.528; 2.526; 2.525 (fraction B); 2.525 (fraction A); 2.524; 2.519; 2.518; 2.516; 2.514; E/E-5.167; 2.512; 2.514

[7] = test system: Gaeumannomyces graminis; experiment: Gaeumannomyces graminis / liquid culture (take-all of cereals); assay type: cell-based; settings: at ≦200 ppm, liquid culture PDB, inhibition of growth photometrically 4-5 days after application, read-out: control of Gaeumannomyces graminis
Procedure: Gaeumannomyces graminis/Liquid Culture (Take-All of Cereals): Mycelial fragments of the fungus from cryogenic storage were directly mixed into nutrient broth (PDB potato dextrose broth). After placing a DMSO solution of test compound into a 96-well microtiter plate, the nutrient broth containing the fungal spores is added. The test plates were incubated at 24° C. and the inhibition of growth was determined photometrically 4-5 days after application. […]-2.509; 5.561; 2.561; P.57; 2.513; 2.559; 2.558; 2.557; 2.556; 2.555; 2.374; 2.553; 2.552; 2.551 (fraction B); 2.551 (fraction A); 2.539; 2.533; 2.528; 2.526; 2.525 (fraction B); 2.525 (fraction A); 2.524; 2.523; 2.521; 2.520; 2.519; 2.510; 2.518; 2.516; 2.514; E/E-5.167; E/E-3.002; 2.512; E/E-2.508

[8] = test system: Blumeria graminis f. sp. tritici (Erysiphe graminis f. sp. tritici); experiment: Blumeria graminis f. sp. tritici / wheat / leaf disc preventative (powdery mildew on wheat); assay type: in vivo; settings: foliar, wheat leaf segments cv. Kanzler, inoculated 1 day after application, assessed 6-8 days after application
Procedure: Blumeria graminis f. sp. tritici (Erysiphe graminis f. sp. tritici)/Wheat/Leaf Disc Preventative (Powdery Mildew on Wheat):
Wheat leaf segments cv. Kanzler were placed on agar in a 24-well plate and sprayed with the formulated test compound diluted in water at an application rate of 200 ppm. The leaf disks were inoculated by shaking powdery mildew infected plants above the test plates 1 day after application. The inoculated leaf disks were incubated at 20° C. and 60% relative humidity under a light regime of 24 h darkness followed by 12 h/12 h (dark/light) in a climate chamber and the activity of a compound was assessed as percent disease control compared to untreated when an appropriate level of disease damage appears on untreated check leaf segments (6-8 days after application). The following compounds gave at least 80% control of Blumeria graminis: E/E-2.168, E/E-2.474, E/E-2.002; 5.561; 2.561; E/E-2.208; 2.513; 2.559; 2.557; 2.556; 2.555; 2.374; 2.552; 2.537; 2.533; 2.530; 2.528; 2.526; 2.519; 2.510; 2.516; 2.514; E/E-5.167; E/E-3.002; 2.512; 2.511

[9] = test system: Pyrenophora teres; experiment: Pyrenophora teres / barley / leaf disc preventative (net blotch); assay type: in vivo; settings: foliar, barley leaf segments cv Hasso, inoculated two days after application, assessed 5-7 days after application
Procedure: Pyrenophora teres/Barley/Leaf Disc Preventative (Net Blotch): Barley leaf segments cv Hasso are placed on agar in a 24-well plate and sprayed with formulated test compound diluted in water at an application rate of 200 ppm. The leaf segments are inoculated with a spore suspension of the fungus two days after application of the test solution. The inoculated leaf segments are incubated at 20° C. and 65% relative humidity under a light regime of 12/12 h (light/dark) in a climate cabinet and the activity of a compound is assessed as disease control compared to untreated when an appropriate level of disease damage appears in untreated check leaf segments (5-7 days after application). […]-2.507; 5.561; 2.561; E/E-2.208; P.57; 2.513; 2.559; 2.558; 2.556; 2.555; 2.374; 2.552; 2.544; 2.537; 2.533; 2.530; 2.528; 2.519; 2.510; 2.516; 2.514; E/E-5.167; E/E-3.002; 2.512

CCOC(=O)c1ccc(C)c(/C(C)=N/OCC(C)(C)CO/N=C2\CCCc3ccc(C)nc32)n1 [Compound 2.526]
≥ 80%: inhibition of growth at up to 200 µg/mL [1] | pest or weed control at 200 ppm [2] | inhibition of growth at up to 200 µg/mL [3] | inhibition of growth at up to 200 µg/mL [4] | inhibition of growth at up to 200 µg/mL [5] | inhibition of growth at up to 200 µg/mL [6] | inhibition of growth at up to 200 µg/mL [7] | pest or weed control at 200 ppm [8]

Cc1ccc2c(n1)/C(=N/OCC(C)(C)CO/N=C/c1ccc(OCc3ccccc3)cn1)CCC2 [Compound 2.553]
≥ 80%: inhibition of growth at up to 200 µg/mL [1] | inhibition of growth at up to 200 µg/mL [3] | inhibition of growth at up to 200 µg/mL [5] | inhibition of growth at up to 200 µg/mL [6] | inhibition of growth at up to 200 µg/mL [7]

C/C(=N\OCC(C)(C)CO/N=C1\CCCc2ccc(C#CCO)nc21)c1cc(C)cc(C)n1 [Compound 2.558]
≥ 80%: inhibition of growth at up to 200 µg/mL [1] | pest or weed control at 200 ppm [2] | inhibition of growth at up to 200 µg/mL [3] | inhibition of growth at up to 200 µg/mL [5] | inhibition of growth at up to 200 µg/mL [6] | inhibition of growth at up to 200 µg/mL [7] | pest or weed control at 200 ppm [9]
